Consider 21 compounds from patent US11390604B2 (Hoffmann-La Roche Inc., priority 2019, dated 2022).

Structures can show the parent of a compound that is named as a salt.

The subject of the first assay is Acinetobacter baumannii ATCC 17961. The assay is described as follows: Antimicrobial susceptibility testing: 90% growth inhibitory concentration (IC90) determination. In kind it is cell-based. Conditions: ATCC17961, Acinetobacter baumannii ATCC 17961, Iso-Sensitest broth, read-out: ATCC 17961 IC90. In a few lines: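 Growth was followed kinetically by OD600 at 20-min intervals for 16 h at 35±2 °C, with ~5×10^5 CFU/ml in Iso-Sensitest broth. Compounds were tested as twofold dilutions (e.g. 50–0.097 μM final). The concentration giving 90% inhibition of log-phase growth was reported.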
For the compound `Cn1c(-c2cn(C3CC3)nc2C(F)(F)F)cnc1C(=O)Nc1ccc(C(=O)NCCCCCCNC(=O)N[C@H]2C[C@@H](N)C2)c(Cl)c1` [Example 262, N-[4-[6-[(3-aminocyclobutyl)carbamoyl-amino]hexylcarbamoyl]-3-chlorophenyl]-5-[1-cyclopropyl-3-(trifluoromethyl)pyrazol-4-yl]-1-methylimidazole-2-carboxamide;formic acid], the IC90 is 323 nM. The same measure, in the same setting: for `CCn1cc(-c2cnc(C(=O)Nc3ccc(C(=O)N4CCN(C(=O)[C@H]5[C@@H]6CNC[C@@H]65)CC4)c(Br)c3)n2C)c(C(F)(F)F)n1` [Example 263, N-[3-bromo-4-[4-[rac-(1R,5S)-3-azabicyclo[3.1.0]hexane-6-carbonyl]piperazine-1-carbonyl]phenyl]-5-[1-ethyl-3-(trifluoromethyl)pyrazol-4-yl]-1-methylimidazole-2-carboxamide;hydrochloride] the value was 325 nM; for `Cn1c(-c2cn(C3CC3(F)F)nc2C(F)(F)F)cnc1C(=O)Nc1ccc(C(=O)N[C@H]2[C@@H]3CN(C(=O)N4CCN(CCCN)CC4)C[C@@H]32)c(Cl)c1` (stereo partly drawn) [Example 264, N-(4-(((1R,5S,6s)-3-(4-(3-aminopropyl)piperazine-1-carbonyl)-3-azabicyclo[3.1.0]hexan-6-yl)carbamoyl)-3-chlorophenyl)-5-(1-(2,2-difluorocyclopropyl)-3-(trifluoromethyl)-1H-pyrazol-4-yl)-1-methyl-1H-imidazole-2-carboxamide], 325 nM; for `Cn1c(-c2cn(C3CC3(F)F)nc2C(F)(F)F)cnc1C(=O)Nc1ccc(C(=O)NC2[C@H]3CN(C(=O)N[C@H]4C[C@@H](N)C4)C[C@@H]23)c(Cl)c1` (stereo partly drawn) [Example 265, cis-N-(3-aminocyclobutyl)-6-[[2-chloro-4-[[5-[1-(2,2-difluorocyclopropyl)-3-(trifluoromethyl)pyrazol-4-yl]-1-methylimidazole-2-carbonyl]amino]benzoyl]amino]-3-azabicyclo[3.1.0]hexane-3-carboxamide, formate salt], 328 nM. Same read-out and setting: for `Cn1c(-c2cn(C3CC3(F)F)nc2C(F)(F)F)cnc1C(=O)Nc1ccc(C(=O)N2CCN(C(=O)C3CCNCC3)CC2)c(Cl)c1` (stereo not drawn) [Example 267, N-(3-chloro-4-(4-(piperidine-4-carbonyl)piperazine-1-carbonyl)phenyl)-5-(1-(2,2-difluorocyclopropyl)-3-(trifluoromethyl)-1H-pyrazol-4-yl)-1-methyl-1H-imidazole-2-carboxamide formate] the value was 332 nM. With `Cn1c(-c2cn(C3CC3(F)F)nc2C(F)(F)F)cnc1C(=O)Nc1ccc(C(=O)N2C3CCC2CNC3)c(Cl)c1` (stereo not drawn) [Example 268, N-(4-(3,8-diazabicyclo[3.2.1]octane-8-carbonyl)-3-chlorophenyl)-5-(1-(2,2-difluorocyclopropyl)-3-(trifluoromethyl)-1H-pyrazol-4-yl)-1-methyl-1H-imidazole-2-carboxamide formate], the IC90 came out at 332 nM. Still for that read-out and setting: the result for `Cn1c(-c2cn(CC#N)nc2C(F)(F)F)cnc1C(=O)Nc1ccc(C(=O)N[C@H]2C[C@@H](NC(=O)[C@H]3C[C@H](N)C3)C2)c(Cl)c1` [Example 269, N-[4-[[3-[(3-aminocyclobutanecarbonyl)ami-no]cyclobutyl]carbamoyl]-3-chloro-phenyl]-5-[1-(cyanomethyl)-3-(trifluoromethyl)pyrazol-4-yl]-1-methyl-imidazole-2-carboxamide; formic acid] reads 333 nM; that for `Cn1c(-c2cn(C3CC3)nc2C(F)(F)F)cnc1C(=O)Nc1ccc(C(=O)N2CCN(C(=O)C(O)CN)CC2)c(Cl)c1` (stereo not drawn) [Example 270, N-[4-[4-(3-amino-2-hydroxypropanoyl)piperazine-1-carbonyl]-3-chlorophenyl]-5-[1-cyclopropyl-3-(trifluoromethyl)pyrazol-4-yl]-1-methylimidazole-2-carboxamide;hydrochloride], 333 nM; that for `Cn1c(-c2cn(CC(F)F)nc2C(F)(F)F)cnc1C(=O)Nc1ccc(C(=O)N2CCN(C(=O)N[C@H]3C[C@@H](N)C3)CC2)c(F)c1` [Example 272, rac-N-((1s,3s)-3-aminocyclobutyl)-4-(4-(5-(1-(2,2-difluoroethyl)-3-(trifluoromethyl)-1H-pyrazol-4-yl)-1-methyl-1H-imidazole-2-carboxamido)-2-fluorobenzoyl)piperazine-1-carboxamide], 335 nM. The same measure, in the same setting: for `Cn1c(-c2cn(C3CC3)nc2C(F)(F)F)cnc1C(=O)Nc1ccc(C(=O)N2CCN(C(=O)[C@H]3CCCCN3)CC2)c(Cl)c1` [Example 273, (R)-N-(3-chloro-4-(4-(piperidine-2-carbonyl)piperazine-1-carbonyl)phenyl)-5-(1-cyclopropyl-3-(trifluoromethyl)-1H-pyrazol-4-yl)-1-methyl-1H-imidazole-2-carboxamide hydrochloride] the value was 336 nM.

Take `Cn1c(-c2cn(C3CCCC3)nc2C(F)(F)F)cnc1C(=O)Nc1ccc(C(=O)N2CCN(C(=O)C3CCNCC3)CC2)c(Cl)c1` [Example 274, N-(3-chloro-4-(4-(piperidine-4-carbonyl)piperazine-1-carbonyl)phenyl)-5-(1-cyclopentyl-3-(trifluoromethyl)-1H-pyrazol-4-yl)-1-methyl-1H-imidazole-2-carboxamide hydrochloride]: the IC90 worked out at 338 nM. On the same count and under the same terms, for `Cn1c(-c2cn(CC#N)nc2C(F)(F)F)cnc1C(=O)Nc1ccc(C(=O)N[C@H]2C[C@@H](NC(=O)N[C@@H]3CC[C@H](N)C3)C2)c(Cl)c1` [Example 275, N-[4-[[3-[[(1R,3S)-3-aminocyclopentyl]carbamoylami-no]cyclobutyl]carbamoyl]-3-chloro-phenyl]-5-[1-(cyanomethyl)-3-(trifluoromethyl)pyrazol-4-yl]-1-methyl-imidazole-2-carboxamide; formic acid] the value was 341 nM; for `Cn1c(-c2cn(CC3CCC3)nc2C(F)(F)F)cnc1C(=O)Nc1ccc(C(=O)N2CCN(C(=O)[C@H]3C[C@H](N)C3)CC2)c(Cl)c1` [Example 276, rac-N-(4-(4-((1r,3r)-3-aminocyclobutane-1-carbonyl)piperazine-1-carbonyl)-3-chlorophenyl)-5-(1-(cyclobutylmethyl)-3-(trifluoromethyl)-1H-pyrazol-4-yl)-1-methyl-1H-imidazole-2-carboxamide hydrochloride], 343 nM; for `Cn1c(-c2cn(C3CC3)nc2C(F)(F)F)cnc1C(=O)Nc1ccc(C(=O)N2CCCC(CN)C2)c(Cl)c1` (stereo not drawn) [Example 277, N-[4-[3-(aminomethyl)piperidine-1-carbonyl]-3-chlorophenyl]-5-[1-cyclopropyl-3-(trifluoromethyl)pyrazol-4-yl]-1-methylimidazole-2-carboxamide;hydrochloride], 343 nM.

As to `C[C@H](N)C(=O)N1CCN(C(=O)c2ccc(NC(=O)c3ncc(-c4cn(CC5CCC5)nc4C(F)(F)F)n3C)cc2Cl)CC1` [Example 278, N-(4-(4-(L-alanyl)piperazine-1-carbonyl)-3-chlorophenyl)-5-(1-(cyclobutylmethyl)-3-(trifluoromethyl)-1H-pyrazol-4-yl)-1-methyl-1H-imidazole-2-carboxamide hydrochloride], the IC90 worked out at 344 nM. On the same count and under the same terms, the result for `Cn1c(-c2cn(CC3CCC3)nc2C(F)(F)F)cnc1C(=O)Nc1ccc(C(=O)N2CCN(C(=O)C3CCN3)CC2)c(Cl)c1` (stereo not drawn) [Example 281, N-(4-(4-(azetidine-2-carbonyl)piperazine-1-carbonyl)-3-chlorophenyl)-5-(1-(cyclobutylmethyl)-3-(trifluoromethyl)-1H-pyrazol-4-yl)-1-methyl-1H-imidazole-2-carboxamide hydrochloride] reads 348 nM. On the same count and under the same terms, for `Cn1c(-c2cn(CC(F)F)nc2C(F)(F)F)cnc1C(=O)Nc1ccc(S(=O)(=O)N2CCN(C(=O)CN)CC2)cc1` [Example 282, 5-(1-(2,2-difluoroethyl)-3-(trifluoromethyl)-1H-pyrazol-4-yl)-N-(4-((4-glycylpiperazin-1-yl)sulfonyl)phenyl)-1-methyl-1H-imidazole-2-carboxamide formate] the value was 348 nM. Still for that read-out and setting: the result for `CCn1cc(-c2cnc(C(=O)Nc3ccc(C(=O)NCCCCCCN)c(Br)c3)n2C)c(C(F)(F)F)n1` [Example 284, N-(4-((6-aminohexyl)carbamoyl)-3-bromophenyl)-5-(1-ethyl-3-(trifluoromethyl)-1H-pyrazol-4-yl)-1-methyl-1H-imidazole-2-carboxamide hydrochloride] reads 350 nM; that for `Cn1c(-c2cn(C3CC3)nc2C(F)(F)F)cnc1C(=O)Nc1ccc(C(=O)N2CCN(C(=O)[C@@H](N)CCCN)CC2)c(Cl)c1` [Example 285, (S)-N-(3-chloro-4-(4-(2,5-diaminopentanoyl)piperazine-1-carbonyl)phenyl)-5-(1-cyclopropyl-3-(trifluoromethyl)-1H-pyrazol-4-yl)-1-methyl-1H-imidazole-2-carboxamide dihydrochloride], 351 nM; that for `Cn1c(-c2cn(C3CC3)nc2C(F)(F)F)cnc1C(=O)Nc1ccc(C(=O)N2CCN(C(=O)C3CNCC(O)C3)CC2)c(Cl)c1` (stereo not drawn) [Example 286, N-[3-chloro-4-[4-(5-hydroxypiperidine-3-carbonyl)piperazine-1-carbonyl]phenyl]-5-[1-cyclopropyl-3-(trifluoromethyl)pyrazol-4-yl]-1-methylimidazole-2-carboxamide;hydrochloride], 351 nM.

Staying with this assay, now noted: Acinetobacter baumannii, ATCC17961, read-out: ATCC 17961 IC90, Acinetobacter baumannii ATCC 17961, Iso-Sensitest broth.
On to `Cn1c(-c2cn(C3CC3)nc2C(F)(F)F)cnc1C(=O)Nc1ccc(C(=O)N2CCN(C(=O)N[C@@H]3C[C@H](N)C3(C)C)CC2)c(Cl)c1` [Example 266, N-[(1R,3S)-3-amino-2,2-dimethylcyclobutyl]-4-[2-chloro-4-[[5-[1-cyclopropyl-3-(trifluoromethyl)pyrazol-4-yl]-1-methylimidazole-2-carbonyl]amino]benzoyl]pipera-zine-1-carboxamide;formic acid], for which the IC90 is 330 nM.

Broadly, the IC90 is the concentration needed for an effect of 90%.
